Where two headings read alike, the source gives them in different places.
Legend:
LoVo cells = assay: LoVo cell proliferation assay (CellTiter-Glo); type: cell-based; conditions: Homo sapiens, LoVo, 120 h, maximum concentration 10 µM, 9 concentrations
Summary of the method: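 LoVo cells, 2,000 per well, were treated after overnight attachment with 9-point 3-fold dilutions from 10 µM for 5 days at 37 °C. Viability was read by CellTiter-Glo luminescence. Inhibition % was taken relative to DMSO control, and IC50 came from the concentration–inhibition curve.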

ATR kinase = target: T1, ATR kinase (Homo sapiens, UniProt Q13535); assay: Inhibitory effect on ATR kinase activity (Caliper mobility shift, FAM-labeled RAD17 peptide substrate); type: biochemical
T1 construct: purchased Eurofins 14-953
T1 sequence (Q13535 whole entry): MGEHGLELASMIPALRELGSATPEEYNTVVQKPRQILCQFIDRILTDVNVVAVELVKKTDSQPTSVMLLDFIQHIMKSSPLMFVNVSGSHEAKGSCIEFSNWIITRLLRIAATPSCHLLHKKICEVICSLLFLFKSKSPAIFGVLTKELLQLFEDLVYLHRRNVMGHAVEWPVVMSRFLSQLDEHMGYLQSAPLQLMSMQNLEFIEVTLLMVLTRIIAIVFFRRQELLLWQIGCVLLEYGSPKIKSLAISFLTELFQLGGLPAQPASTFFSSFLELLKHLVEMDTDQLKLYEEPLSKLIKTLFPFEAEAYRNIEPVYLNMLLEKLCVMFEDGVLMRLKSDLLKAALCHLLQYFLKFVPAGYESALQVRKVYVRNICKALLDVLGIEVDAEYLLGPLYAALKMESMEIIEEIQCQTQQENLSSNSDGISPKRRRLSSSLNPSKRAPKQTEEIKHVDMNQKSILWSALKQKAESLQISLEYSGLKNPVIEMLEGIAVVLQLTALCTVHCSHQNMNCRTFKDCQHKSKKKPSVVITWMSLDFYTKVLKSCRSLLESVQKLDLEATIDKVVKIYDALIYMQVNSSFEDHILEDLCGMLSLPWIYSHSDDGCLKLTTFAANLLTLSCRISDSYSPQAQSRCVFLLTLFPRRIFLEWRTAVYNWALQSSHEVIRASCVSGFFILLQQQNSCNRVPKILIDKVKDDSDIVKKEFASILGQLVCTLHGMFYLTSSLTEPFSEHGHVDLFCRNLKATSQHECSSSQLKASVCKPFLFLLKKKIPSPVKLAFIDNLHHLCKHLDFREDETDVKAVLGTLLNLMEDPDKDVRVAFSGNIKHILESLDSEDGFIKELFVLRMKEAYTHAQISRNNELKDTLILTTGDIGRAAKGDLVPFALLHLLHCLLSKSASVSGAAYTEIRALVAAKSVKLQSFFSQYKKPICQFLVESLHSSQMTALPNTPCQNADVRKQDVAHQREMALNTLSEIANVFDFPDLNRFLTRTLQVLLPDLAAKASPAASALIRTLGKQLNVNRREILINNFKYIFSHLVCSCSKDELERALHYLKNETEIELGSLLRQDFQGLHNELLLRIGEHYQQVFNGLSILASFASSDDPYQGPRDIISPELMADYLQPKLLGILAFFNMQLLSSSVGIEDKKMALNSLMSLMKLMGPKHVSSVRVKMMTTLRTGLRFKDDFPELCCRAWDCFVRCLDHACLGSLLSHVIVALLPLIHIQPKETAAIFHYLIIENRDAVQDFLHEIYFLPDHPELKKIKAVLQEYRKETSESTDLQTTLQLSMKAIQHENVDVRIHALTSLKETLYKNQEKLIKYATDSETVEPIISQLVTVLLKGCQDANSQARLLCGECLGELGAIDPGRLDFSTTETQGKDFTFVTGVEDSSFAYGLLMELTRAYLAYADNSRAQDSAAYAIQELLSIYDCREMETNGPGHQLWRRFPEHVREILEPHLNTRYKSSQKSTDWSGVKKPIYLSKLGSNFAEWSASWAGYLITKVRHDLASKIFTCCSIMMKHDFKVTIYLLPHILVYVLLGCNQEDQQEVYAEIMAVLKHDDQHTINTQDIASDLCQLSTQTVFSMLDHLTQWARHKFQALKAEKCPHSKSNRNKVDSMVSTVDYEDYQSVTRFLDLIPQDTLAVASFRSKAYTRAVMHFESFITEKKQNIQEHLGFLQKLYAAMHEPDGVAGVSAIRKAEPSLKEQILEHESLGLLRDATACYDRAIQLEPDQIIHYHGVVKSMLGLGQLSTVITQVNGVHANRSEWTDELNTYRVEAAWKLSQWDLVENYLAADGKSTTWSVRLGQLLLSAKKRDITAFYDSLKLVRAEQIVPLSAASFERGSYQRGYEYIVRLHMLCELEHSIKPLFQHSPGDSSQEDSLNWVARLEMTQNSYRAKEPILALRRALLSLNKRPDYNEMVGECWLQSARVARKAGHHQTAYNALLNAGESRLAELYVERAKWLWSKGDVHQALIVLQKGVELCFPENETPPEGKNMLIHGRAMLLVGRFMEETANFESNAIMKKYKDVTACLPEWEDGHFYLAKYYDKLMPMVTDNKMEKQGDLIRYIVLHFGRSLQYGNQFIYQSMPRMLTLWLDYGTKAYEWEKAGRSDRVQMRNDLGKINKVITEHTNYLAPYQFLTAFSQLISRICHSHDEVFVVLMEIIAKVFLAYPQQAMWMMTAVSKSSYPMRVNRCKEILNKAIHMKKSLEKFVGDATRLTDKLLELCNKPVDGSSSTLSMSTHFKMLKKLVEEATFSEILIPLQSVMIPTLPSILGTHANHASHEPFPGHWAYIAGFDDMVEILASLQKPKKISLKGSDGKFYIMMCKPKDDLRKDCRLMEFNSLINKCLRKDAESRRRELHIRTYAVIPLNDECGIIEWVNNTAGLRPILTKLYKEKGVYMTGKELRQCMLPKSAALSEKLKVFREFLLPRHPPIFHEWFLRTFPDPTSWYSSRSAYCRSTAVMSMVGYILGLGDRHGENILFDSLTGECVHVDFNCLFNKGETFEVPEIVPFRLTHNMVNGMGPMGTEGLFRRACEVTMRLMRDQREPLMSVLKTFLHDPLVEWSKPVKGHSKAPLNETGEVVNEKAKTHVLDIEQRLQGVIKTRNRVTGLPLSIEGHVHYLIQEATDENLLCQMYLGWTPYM
T1 sequence (Q8WXE1 whole entry partner): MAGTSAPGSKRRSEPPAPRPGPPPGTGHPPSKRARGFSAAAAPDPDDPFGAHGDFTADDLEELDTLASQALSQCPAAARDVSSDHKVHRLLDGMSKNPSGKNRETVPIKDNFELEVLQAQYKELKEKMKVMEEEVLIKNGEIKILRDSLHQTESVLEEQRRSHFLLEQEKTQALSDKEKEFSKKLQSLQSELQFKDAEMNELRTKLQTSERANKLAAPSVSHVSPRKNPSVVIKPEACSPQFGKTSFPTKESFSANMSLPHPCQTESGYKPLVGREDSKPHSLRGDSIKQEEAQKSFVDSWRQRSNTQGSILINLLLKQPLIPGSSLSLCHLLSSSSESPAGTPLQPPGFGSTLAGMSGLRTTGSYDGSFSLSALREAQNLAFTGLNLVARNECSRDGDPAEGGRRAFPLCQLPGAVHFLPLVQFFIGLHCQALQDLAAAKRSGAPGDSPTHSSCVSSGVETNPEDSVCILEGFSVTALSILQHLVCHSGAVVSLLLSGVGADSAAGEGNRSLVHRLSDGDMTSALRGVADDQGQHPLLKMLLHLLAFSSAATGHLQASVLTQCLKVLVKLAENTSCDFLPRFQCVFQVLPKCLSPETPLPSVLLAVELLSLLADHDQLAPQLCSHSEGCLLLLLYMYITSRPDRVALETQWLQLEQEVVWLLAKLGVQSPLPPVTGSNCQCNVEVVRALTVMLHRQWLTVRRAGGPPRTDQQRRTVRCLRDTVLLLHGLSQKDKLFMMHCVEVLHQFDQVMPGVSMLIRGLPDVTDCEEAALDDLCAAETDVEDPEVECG
Summary of the method: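 Caliper mobility-shift assay with 1 nM ATR, FAM-labeled RAD17 peptide […] and 5 mM ATP in HEPES pH 7.5 with 10 mM MnCl2, run 3 h at 28 °C and stopped with EDTA. Compounds were tested in 10-point 3-fold dilutions from 1 µM. IC50 was fitted from % inhibition of substrate conversion versus blank control.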

[1] = LoVo cells, 2,000 cells per well, 5 days incubation, CellTiter-Glo, read-out: LoVo IC50
[2] = 1 nM ATR kinase (Eurofins), 28°C for 3 hours, maximum concentration 1 µM, 10 concentrations, read-out: ATR kinase IC50
[3] = read-out: LoVo IC50 (nM), LoVo cells, 2,000 cells per well, 5 days incubation, CellTiter-Glo
[4] = read-out: ATR kinase IC50, 1 nM ATR kinase (Eurofins), 28°C for 3 hours, maximum concentration 1 µM, 10 concentrations

SMILES | IC50 (LoVo cells; [1]) [nM] | IC50 (ATR kinase; [2]) [nM] | IC50 (LoVo cells; [3]) [nM] | IC50 (ATR kinase; [4]) [nM]
CC1CC(C(=O)N2CCc3nn(-c4cc[nH]n4)c4nc(N5CCOC[C@H]5C)cc(c34)C2)C1 (stereo partly drawn) [Compound 15, (R)-(3-methylcyclobutyl)(4-(3-methylmorpholino)-2-(1H-pyrazol-3-yl)-2,6,8,9-tetrahydro-7H-1,2,3,7-tetraazabenzo[cd]azulene-7-yl)methanone] | 100 to 1000 | 10 to 100 |  | 
CC(C(=O)N1CCc2nn(-c3cc[nH]n3)c3nc(N4CCOC[C@H]4C)cc(c23)C1)C(F)(F)F (stereo partly drawn) [Compound 16, 3,3,3-trifluoro-2-methyl-1-(4-((R)-3-methylmorpholinyl)-2-(1H-pyrazol-3-yl)-2,6,8,9-tetrahydro-7H-1,2,3,7-tetraazabenzo[cd]azulen-7-yl)propan-1-one] |  |  | 100 to 1000 | < 10
C[C@@H]1COCCN1c1cc2c3c(nn(-c4cc[nH]n4)c3n1)CCN(c1ccccc1)C2 [Compound 17, (R)-3-methyl-4-(7-phenyl-2-(1H-pyrazol-3-yl)-6,7,8,9-tetrahydro-2H-1,2,3,7-tetraazabenzo[cd]azulen-4-yl)morpholine] | > 1000 | 10 to 100 |  | 
C[C@@H]1COCCN1c1cc2c3c(nn(-c4cc[nH]n4)c3n1)CCN(C(=O)C1(C(F)(F)F)CC1)C2 [Compound 18, (R)-(4-(3-methylmorpholinyl)-2-(1H-pyrazol-3-yl)-2,6,8,9-tetrahydro-7H-1,2,3,7-tetraazabenzo[cd]azulen-7-yl)(1-(trifluoromethyl)cyclopropyl)methanone] |  |  | < 100 | < 10
C#CC(C)N1CCc2nn(-c3cc[nH]n3)c3nc(N4CCOC[C@H]4C)cc(c23)C1 (stereo partly drawn) [Compound 21, (3R)-4-(7-(but-3-yn-2-yl)-2-(1H-pyrazol-3-yl)-6,7,8,9-tetrahydro-2H-1,2,3,7-tetraazabenzo[cd]azulen-4-yl)-3-methylmorpholine] | 100 to 1000 | 10 to 100 |  | 
C[C@@H]1COCCN1c1cc2c3c(nn(-c4cc[nH]n4)c3n1)CCN(S(C)(=O)=O)C2 [Compound 22, (R)-3-methyl-4-(7-(methylsulfonyl)-2-(1H-pyrazol-3-yl)-6,7,8,9-tetrahydro-2H-1,2,3,7-tetraazabenzo[cd]azulen-4-yl)morpholine] | < 100 | < 10 |  | 
C[C@@H]1COCCN1c1cc2c3c(nn(-c4cc[nH]n4)c3n1)CCN(S(=O)(=O)C1CC1)C2 [Compound 23, (R)-4-(7-(cyclopropylsulfonyl)-2-(1H-pyrazol-3-yl)-6,7,8,9-tetrahydro-2H-1,2,3,7-tetraazabenzo[cd]azulen-4-yl)-3-methylmorpholine] | 100 to 1000 | < 10 |  | 
CC(C)S(=O)(=O)N1CCc2nn(-c3cc[nH]n3)c3nc(N4CCOC[C@H]4C)cc(c23)C1 [Compound 24, (R)-4-(7-(isopropylsulfonyl)-2-(1H-pyrazol-3-yl)-6,7,8,9-tetrahydro-2H-1,2,3,7-tetraazabenzo[cd]azulen-4-yl)-3-methylmorpholine] | 100 to 1000 | < 10 |  | 
C[C@@H]1COCCN1c1cc2c3c(nn(-c4cc[nH]n4)c3n1)CCN(S(=O)(=O)C(F)F)C2 [Compound 27, (R)-4-(7-((difluoromethyl)sulfonyl)-2-(1H-pyrazol-3-yl)-6,7,8,9-tetrahydro-2H-1,2,3,7-tetraazabenzo[cd]azulen-4-yl)-3-methylmorpholine] | 100 to 1000 | < 10 |  | 
C[C@@H]1COCCN1c1cc2c3c(nn(-c4cc[nH]n4)c3n1)CCN(S(C)(=N)=O)C2 (stereo partly drawn) [Compound 28, (3R)-3-methyl-4-(7-(S-methylsulfonylimino)-2-(1H-pyrazol-3-yl)-6,7,8,9-tetrahydro-2H-1,2,3,7-tetraazabenzo[cd]azulen-4-yl)morpholine] | > 1000 | 10 to 100 |  | 
CC1c2cc(N3CCOC[C@H]3C)nc3c2c(nn3-c2cc[nH]n2)CCN1S(=O)(=O)CCO (stereo partly shown) [Compound 34] |  |  | 100 to 1000 | < 10
CC(=O)N1CCc2nn(-c3cc[nH]n3)c3nc(N4CCOC[C@H]4C)cc(c23)C1C (stereo partly drawn) [Compound 38, 1-(6-methyl-4-((R)-3-methylmorpholinyl)-2-(1H-pyrazol-3-yl)-2,6,8,9-tetrahydro-7H-1,2,3,7-tetraazabenzo[cd]azulen-7-yl)ethan-1-one] |  |  | 100 to 1000 | < 10
C=CS(=O)(=O)N1CCc2nn(-c3cc[nH]n3)c3nc(N4CCOC[C@H]4C)cc(c23)C1C (stereo partly drawn) [Compound 50, (3R)-3-methyl-4-(6-methyl-2-(1H-pyrazol-3-yl)-7-(vinylsulfonyl)-6,7,8,9-tetrahydro-2H-1,2,3,7-tetraazabenzo[cd]azulen-4-yl)morpholine] | < 100 | < 10 |  | 
CC1NC(=O)Cn2nc(-c3cc[nH]n3)c3nc(N4CCOC[C@H]4C)cc1c32 (stereo partly drawn) [Compound 56, 6-methyl-4-((R)-3-methylmorpholinyl)-2-(1H-pyrazol-3-yl)-6,7-dihydro-1,3,7,9a-tetraazabenzo[cd]azulen-8(9H)-one] |  |  | > 1000 | 10 to 100
C[C@@H]1COCCN1c1cc2c3c(nn(-c4cc[nH]n4)c3n1)CCC(=O)N2C1(C)CC1 [Compound 75, (R)-6-(1-methylcyclopropyl)-4-(3-methylmorpholino)-2-(1H-pyrazol-3-yl)-2,6,8,9-tetrahydro-7H-1,2,3,6-tetraazabenzo[cd]azulene-7-one] | < 100 | < 10 |  | 
C[C@@H]1COCCN1c1cc2c3c(nn(-c4cc[nH]n4)c3n1)CCC(=O)N2CC1(C)CC1 [Compound 77, (R)-6-((1-methylcyclopropyl)methyl)-4-(3-methylmorpholino)-2-(1H-pyrazol-3-yl)-2,6,8,9-tetrahydro-7H-1,2,3,6-tetraazabenzo[cd]azulene-7-one] | < 100 | < 10 |  | 
CC(C)N1C(=O)CCc2nn(-c3cc[nH]n3)c3nc(N4CCOC[C@H]4C)cc1c23 [Compound 78, (R)-6-isopropyl-4-(3-methylmorpholino)-2-(1H-pyrazol-3-yl)-2,6,8,9-tetrahydro-7H-1,2,3,6-tetraazabenzo[cd]azulene-7-one] |  | < 10 | < 100 | 

Continued, in another order:

IC50 (LoVo cells; [1]) [nM] | IC50 (ATR kinase; [2]) [nM] | SMILES | IC50 (LoVo cells; [3]) [nM] | IC50 (ATR kinase; [4]) [nM]
100 to 1000 | < 10 | C[C@@H]1COCCN1c1cc2c3c(nn(-c4cc[nH]n4)c3n1)CCN(C(=O)C1CC1(F)F)C2 (stereo partly drawn) [Compound 19, (2,2-difluorocyclopropyl)(4-((R)-3-methylmorpholino)-2-(1H-pyrazol-3-yl)-2,6,8,9-tetrahydro-7H-1,2,3,7-tetraazabenzo[cd]azulene-7-yl)methanone] |  | 
> 1000 | 10 to 100 | C[C@@H]1COCCN1c1cc2c3c(n1)c(-c1cc[nH]n1)nn3CCN(C1CC(F)(F)C1)C2 [Compound 52, (R)-4-(7-(3,3-difluorocyclobutyl)-2-(1H-pyrazol-3-yl)-6,7,8,9-tetrahydro-1,3,7,9a-tetraazabenzo[cd]azulen-4-yl)-3-methylmorpholine] |  | 
> 1000 | 10 to 100 | C[C@@H]1COCCN1c1cc2c3c(n1)c(-c1cc[nH]n1)nn3CCN(C(=O)C1CC(F)(F)C1)C2 [Compound 53, (R)-(3,3-difluorocyclobutyl)(4-(3-methylmorpholino)-2-(1H-pyrazol-3-yl)-8,9-dihydro-1,3,7,9a-tetraazabenzo[cd]azulene-7(6H)-yl)methanone] |  | 
100 to 1000 | 10 to 100 | C[C@@H]1COCCN1c1cc2c3c(n1)c(-c1cc[nH]n1)nn3CCN(C(=O)C1CC1)C2 [Compound 54, (R)-cyclopropyl(4-(3-methylmorpholino)-2-(1H-pyrazol-3-yl)-8,9-dihydro-1,3,7,9a-tetraazabenzo[cd]azulene-7(6H)-yl)methanone] |  | 
100 to 1000 | 10 to 100 | C[C@@H]1COCCN1c1cc2c3c(n1)c(-c1cc[nH]n1)nn3CCN(S(C)(=O)=O)C2 [Compound 55, (R)-3-methyl-4-(7-(methylsulfonyl)-2-(1H-pyrazol-3-yl)-6,7,8,9-tetrahydro-1,3,7,9a-tetraazabenzo[cd]azulen-4-yl)morpholine] |  | 
100 to 1000 | 10 to 100 | CC1c2cc(N3CCOC[C@H]3C)nc3c(-c4cc[nH]n4)nn(c23)CCN1C1COC1 (stereo partly drawn) [Compound 57, (3R)-3-methyl-4-(6-methyl-7-(oxetan-3-yl)-2-(1H-pyrazol-3-yl)-6,7,8,9-tetrahydro-1,3,7,9a-tetraazabenzo[cd]azulen-4-yl)morpholine] |  | 
100 to 1000 | 10 to 100 | CC1=NCCn2nc(-c3cc[nH]n3)c3nc(N4CCOC[C@H]4C)cc1c32 [Compound 58, (R)-3-methyl-4-(6-methyl-2-(1H-pyrazol-3-yl)-8,9-dihydro-1,3,7,9a-tetraazabenzo[cd]azulen-4-yl)morpholine] |  | 
> 1000 | 1000 to 2500 | C[C@@H]1COCCN1c1cc2c3c(n1)c(-c1cc[nH]n1)nn3CCN2C [Compound 62, (R)-3-methyl-4-(5-methyl-1-(1H-pyrazol-3-yl)-4,5-dihydro-3H-2,2a,5,8-tetraazaacenaphthen-7-yl)morpholine] |  | 
100 to 1000 | 100 to 1000 | CC(C)N1CCn2nc(-c3cc[nH]n3)c3nc(N4CCOC[C@H]4C)cc1c32 [Compound 63, (R)-4-(5-isopropyl-1-(1H-pyrazol-3-yl)-4,5-dihydro-3H-2,2a,5,8-tetraazaacenaphthen-7-yl)-3-methylmorpholine] |  | 

Source: patent publication EP4692090A1 (Shanghai Fosun Pharmaceutical (Group) Co., Ltd., priority 2023, dated 2024)
